#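 Interpolation was linear, between the two tested concentrations surrounding the appropriate level; five concentrations were tested over 48 hours in 96-well plates. GI50 is the concentration that inhibits growth by half. TGI marks complete inhibition of growth.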
# Experiments:
# Test in all cases: DTP human tumour cell line panel, 48 h
# SR leukemia = system: SR leukemia
# 786-0 renal = system: 786-0 renal
# HOP-92 NSCLC = system: HOP-92 NSCLC
# HS 578T breast = system: HS 578T breast
# CCRF-CEM leukemia = system: CCRF-CEM leukemia
# T-47D breast = system: T-47D breast
# OVCAR-5 ovarian = system: OVCAR-5 ovarian
# SW-620 colon = system: SW-620 colon
# SK-MEL-5 melanoma = system: SK-MEL-5 melanoma
# MDA-MB-231 breast = system: MDA-MB-231 breast
# COLO 205 colon = system: COLO 205 colon
# UACC-62 melanoma = system: UACC-62 melanoma
# SN12C renal = system: SN12C renal
# NCI-H226 lung = system: NCI-H226 lung
# RXF 393 renal = system: RXF 393 renal
# HT29 colon = system: HT29 colon
# SK-MEL-28 melanoma = system: SK-MEL-28 melanoma
# SF-539 CNS = system: SF-539 CNS
# SNB-75 CNS = system: SNB-75 CNS
# UACC-257 melanoma = system: UACC-257 melanoma
# OVCAR-4 ovarian = system: OVCAR-4 ovarian
# OVCAR-3 ovarian = system: OVCAR-3 ovarian
# SF-268 CNS = system: SF-268 CNS
# SK-MEL-2 melanoma = system: SK-MEL-2 melanoma
# BT-549 breast = system: BT-549 breast
# KM12 colon = system: KM12 colon
# K-562 leukemia = system: K-562 leukemia
# DU-145 prostate = system: DU-145 prostate
# OVCAR-8 ovarian = system: OVCAR-8 ovarian
# MDA-MB-435 = system: MDA-MB-435
# SF-295 CNS = system: SF-295 CNS
# ACHN renal = system: ACHN renal
# TK-10 renal = system: TK-10 renal
# NCI/ADR-RES ovarian = system: NCI/ADR-RES ovarian
# A549 NSCLC = system: A549 NSCLC
# SNB-19 CNS = system: SNB-19 CNS
# EKVX NSCLC = system: EKVX NSCLC
# U251 CNS = system: U251 CNS
# MALME-3M melanoma = system: MALME-3M melanoma
# PC-3 prostate = system: PC-3 prostate
# NCI-H460 lung = system: NCI-H460 lung
# HCT-116 colon = system: HCT-116 colon
# LOX IMVI melanoma = system: LOX IMVI melanoma
# NCI-H522 lung = system: NCI-H522 lung
# CAKI-1 renal = system: CAKI-1 renal
# HL-60(TB) leukemia = system: HL-60(TB) leukemia
# UO-31 renal = system: UO-31 renal
# M14 melanoma = system: M14 melanoma
# HOP-62 NSCLC = system: HOP-62 NSCLC
# NCI-H23 lung = system: NCI-H23 lung
# HCC-2998 colon = system: HCC-2998 colon
# RPMI-8226 leukemia = system: RPMI-8226 leukemia
# HCT-15 colon = system: HCT-15 colon
# SK-OV-3 ovarian = system: SK-OV-3 ovarian
# MOLT-4 leukemia = system: MOLT-4 leukemia
# MCF7 breast = system: MCF7 breast
# A498 renal = system: A498 renal
# IGROV1 ovarian = system: IGROV1 ovarian
structure (smiles),measurement,setting,value
COc1ccc(-c2nn(C(=O)NCCN(C)C)cc2-c2ccncc2)cc1Cl,GI50,SR leukemia,6.03 µM
same,TGI,SR leukemia,> 100 µM
same,GI50,786-0 renal,7.62 µM
same,TGI,786-0 renal,51.5 µM
same,GI50,HOP-92 NSCLC,1.16 µM
same,TGI,HOP-92 NSCLC,56.3 µM
same,GI50,HS 578T breast,2.79 µM
same,TGI,HS 578T breast,9.21 µM
same,GI50,CCRF-CEM leukemia,7.47 µM
same,TGI,CCRF-CEM leukemia,> 100 µM
same,GI50,T-47D breast,11.6 µM
same,TGI,T-47D breast,> 100 µM
same,GI50,OVCAR-5 ovarian,15.1 µM
same,TGI,OVCAR-5 ovarian,> 100 µM
same,GI50,SW-620 colon,3.35 µM
same,TGI,SW-620 colon,> 100 µM
same,GI50,SK-MEL-5 melanoma,3.05 µM
same,TGI,SK-MEL-5 melanoma,11.4 µM
same,GI50,MDA-MB-231 breast,6.34 µM
same,TGI,MDA-MB-231 breast,> 100 µM
same,GI50,COLO 205 colon,3.5 µM
same,TGI,COLO 205 colon,13.9 µM
same,GI50,UACC-62 melanoma,3.07 µM
same,TGI,UACC-62 melanoma,14.3 µM
same,GI50,SN12C renal,5.39 µM
same,TGI,SN12C renal,> 100 µM
same,GI50,NCI-H226 lung,4.11 µM
same,TGI,NCI-H226 lung,63.7 µM
same,GI50,RXF 393 renal,2.19 µM
same,TGI,RXF 393 renal,12.8 µM
same,GI50,HT29 colon,2.17 µM
same,TGI,HT29 colon,12.6 µM
same,GI50,SK-MEL-28 melanoma,4.01 µM
same,TGI,SK-MEL-28 melanoma,38.3 µM
same,GI50,SF-539 CNS,2.28 µM
same,TGI,SF-539 CNS,13.1 µM
same,GI50,SNB-75 CNS,1.68 µM
same,TGI,SNB-75 CNS,6.19 µM
same,GI50,UACC-257 melanoma,16.6 µM
same,TGI,UACC-257 melanoma,> 100 µM
same,GI50,OVCAR-4 ovarian,7.87 µM
same,TGI,OVCAR-4 ovarian,> 100 µM
same,GI50,OVCAR-3 ovarian,4.32 µM
same,TGI,OVCAR-3 ovarian,39.1 µM
same,GI50,SF-268 CNS,3.68 µM
same,TGI,SF-268 CNS,37.2 µM
same,GI50,SK-MEL-2 melanoma,3.67 µM
same,TGI,SK-MEL-2 melanoma,9.48 µM
same,GI50,BT-549 breast,4.51 µM
same,TGI,BT-549 breast,> 100 µM
same,GI50,KM12 colon,4.01 µM
same,TGI,KM12 colon,43.5 µM
same,GI50,K-562 leukemia,5.66 µM
same,TGI,K-562 leukemia,> 100 µM
same,GI50,DU-145 prostate,6.94 µM
same,TGI,DU-145 prostate,65.6 µM
same,GI50,OVCAR-8 ovarian,1.73 µM
same,TGI,OVCAR-8 ovarian,35.9 µM
same,GI50,MDA-MB-435,1.15 µM
same,TGI,MDA-MB-435,4.34 µM
same,GI50,SF-295 CNS,3 µM
same,TGI,SF-295 CNS,42.6 µM
same,GI50,ACHN renal,3.76 µM
same,TGI,ACHN renal,> 100 µM
same,GI50,TK-10 renal,1.86 µM
same,TGI,TK-10 renal,56.1 µM
same,GI50,NCI/ADR-RES ovarian,3.1 µM
same,TGI,NCI/ADR-RES ovarian,> 100 µM
same,GI50,A549 NSCLC,5.44 µM
same,TGI,A549 NSCLC,> 100 µM
same,GI50,SNB-19 CNS,5.15 µM
same,TGI,SNB-19 CNS,> 100 µM
same,GI50,EKVX NSCLC,2.23 µM
same,TGI,EKVX NSCLC,> 100 µM
same,GI50,U251 CNS,3.71 µM
same,TGI,U251 CNS,> 100 µM
same,GI50,MALME-3M melanoma,11.8 µM
same,TGI,MALME-3M melanoma,> 100 µM
same,GI50,PC-3 prostate,4.62 µM
same,TGI,PC-3 prostate,> 100 µM
same,GI50,NCI-H460 lung,3.83 µM
same,TGI,NCI-H460 lung,35.4 µM
same,GI50,HCT-116 colon,4.6 µM
same,TGI,HCT-116 colon,> 100 µM
same,GI50,LOX IMVI melanoma,4.23 µM
same,TGI,LOX IMVI melanoma,48.9 µM
same,GI50,NCI-H522 lung,1.88 µM
same,TGI,NCI-H522 lung,5.36 µM
same,GI50,CAKI-1 renal,3.24 µM
same,TGI,CAKI-1 renal,24.4 µM
same,GI50,HL-60(TB) leukemia,5.3 µM
same,TGI,HL-60(TB) leukemia,57.9 µM
same,GI50,UO-31 renal,8.62 µM
same,TGI,UO-31 renal,53.6 µM
same,GI50,M14 melanoma,5.52 µM
same,TGI,M14 melanoma,24.4 µM
same,GI50,HOP-62 NSCLC,2.99 µM
same,TGI,HOP-62 NSCLC,20.9 µM
same,GI50,NCI-H23 lung,6.29 µM
same,TGI,NCI-H23 lung,60.7 µM
same,GI50,HCC-2998 colon,10.1 µM
same,TGI,HCC-2998 colon,46.4 µM
same,GI50,RPMI-8226 leukemia,9.71 µM
same,TGI,RPMI-8226 leukemia,81.8 µM
same,GI50,HCT-15 colon,3.93 µM
same,TGI,HCT-15 colon,> 100 µM
same,GI50,SK-OV-3 ovarian,3.12 µM
same,TGI,SK-OV-3 ovarian,15.5 µM
same,GI50,MOLT-4 leukemia,4.67 µM
same,TGI,MOLT-4 leukemia,> 100 µM
same,GI50,MCF7 breast,3.57 µM
same,TGI,MCF7 breast,> 100 µM
same,GI50,A498 renal,2.12 µM
same,TGI,A498 renal,5.95 µM
same,GI50,IGROV1 ovarian,8.74 µM
same,TGI,IGROV1 ovarian,> 100 µM

# Reference: PubChem BioAssay (NCI)
